# Measurements taken from patent US11203591B2, “Substituted 6-azabenzimidazole compounds” (Gilead Sciences, Inc., priority 2018, dated 2021).
# Biological target: human HPK1 (MAP4K1) (Homo sapiens (Human), UniProt Q92918)
# Assay: HPK1 IC50 Assay (TR-FRET peptide phosphorylation)
# Format: biochemical
# Outline: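 Pre-activated, dually phosphorylated baculovirus-expressed HPK1 kinase domain (0.15 nM) preincubated 15 min with compound, then reacted 3 h at 25° C with 10 μM ATP and 1 μM STK S1 peptide in BES pH 7.0 buffer. Phosphopeptide read by TR-FRET (665/620 nm); four-parameter fit, geometric-mean IC50.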
# [1] = recombinant HPK1 kinase domain 0.15 nM, 10 μM ATP, 1 μM STK S1 peptide, geometric mean of multiple experiments
# [2] = 0.15 nM HPK1, 10 μM ATP, 1 μM STK S1 peptide substrate, geometric mean
# human HPK1 (MAP4K1), sequence (Q92918 17-274): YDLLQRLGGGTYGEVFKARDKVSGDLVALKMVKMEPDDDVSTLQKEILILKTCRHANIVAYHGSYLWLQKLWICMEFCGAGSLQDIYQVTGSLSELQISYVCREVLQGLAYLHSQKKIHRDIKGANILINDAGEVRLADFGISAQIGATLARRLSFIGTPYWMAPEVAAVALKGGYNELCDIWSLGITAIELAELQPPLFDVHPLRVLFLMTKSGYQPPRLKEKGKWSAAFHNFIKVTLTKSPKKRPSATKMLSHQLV
SMILES,IC50 [1] [nM],IC50 [2] [nM]
CC(=O)N1CCC2(CC1)C(=O)N([C@H]1C[C@@H](N3CCCCC3)C1)c1cc(-c3cc4ncn(C(C)C)c4c(Nc4cc(C(=O)NC5CCC5)c(C)cc4F)n3)ccc12 [Example 76],0.2,
"CCNC(=O)c1cc(Nc2nc(-c3cc4c(nc3F)C(C)(C)C(=O)N4[C@H]3C[C@@](C)(N4CCCCC4)C3)cc3ncn(C(C)C)c23)c(F)c(F)c1C [Example 271, N-ethyl-3,4-difluoro-5-((6-(5-fluoro-3,3-dimethyl-1-((1s,3s)-3-methyl-3-(piperidin-1-yl)cyclobutyl)-2-oxo-2,3-dihydro-1H-pyrrolo[3,2-b]pyridin-6-yl)-3-isopropyl-3H-imidazo[4,5-c]pyridin-4-yl)amino)-2-methylbenzamide]",,0.06
"Cc1c(C(=O)NC2(C(F)F)CC2)cc(Nc2nc(-c3cnc4c(c3)N([C@H]3C[C@@H](N5CCCCC5)C3)C(=O)C4(C)C)cc3ncn(C(C)C)c23)c(F)c1F [Example 246, N-(1-(difluoromethyl)cyclopropyl)-5-((6-(3,3-dimethyl-2-oxo-1-((1s,3s)-3-(piperidin-1-yl)cyclobutyl)-2,3-dihydro-1H-pyrrolo[3,2-b]pyridin-6-yl)-3-isopropyl-3H-imidazo[4,5-c]pyridin-4-yl)amino)-3,4-difluoro-2-methylbenzamide]",0.04,
CNC(=O)c1cc(Nc2nc(-c3ccc4c(c3)N([C@H]3C[C@@H](NCC(C)(C)F)C3)C(=O)C4(C)C)cc3ncn(C(C)C)c23)ccc1C [Example 82],0.08,
CNC(=O)c1cc(Nc2nc(-c3ccc4c(c3)N([C@H]3C[C@@H](N5CC6C(C5)C6(F)F)C3)C(=O)C43CCN(C4COC4)CC3)cc3ncn(C(C)C)c23)c(F)cc1C (stereo partly drawn) [Example 70],0.7,
CCNC(=O)c1cc(Nc2nc(-c3ccc4c(c3)N([C@H]3C[C@@H](N5CCC[C@@H](F)C5)C3)C(=O)C43CCN(C4COC4)CC3)cc3ncn(C(C)C)c23)c(F)cc1C [Example 171],0.2,
"Cc1ccc(Nc2nc(-c3ccc4c(c3)N([C@H]3C[C@@H](N5CCCCC5)C3)C(=O)C4(C)C)cc3ncn(C(C)C)c23)cc1C(=O)N[C@H](C)C(F)F [Example 21B, N-(1,1-difluoropropan-2-yl)-5-((6-(3,3-dimethyl-2-oxo-1-((1s,3s)-3-(piperidin-1-yl)cyclobutyl)indolin-6-yl)-3-isopropyl-3H-imidazo[4,5-c]pyridin-4-yl)amino)-2-methylbenzamide]",0.07,
"Cc1cc(F)c(Nc2nc(-c3cnc4c(c3)N([C@H]3C[C@@](C)(N5CCCCC5)C3)C(=O)C43CCOCC3)cc3ncn(C(C)C)c23)cc1C(=O)NC1(C(F)F)CC1 [Example 206, N-(1-(Difluoromethyl)cyclopropyl)-4-fluoro-5-((3-isopropyl-6-(1′-((1s,3s)-3-methyl-3-(piperidin-1-yl)cyclobutyl)-2′-oxo-1′,2,2′,3,5,6-hexahydrospiro[pyran-4,3′-pyrrolo[3,2-b]pyridin]-6′-yl)-3H-imidazo[4,5-c]pyridin-4-yl)amino)-2-methylbenzamide]",0.07,
Cc1ccc(Nc2nc(-c3ccc4c(c3)N([C@H]3C[C@@H](N5CCCCC5)C3)C(=O)C4(C)C)cc3ncn(C(C)C)c23)cc1C(=O)NC1CCC1 [Example 2],0.1,
"CNC(=O)c1cc(Nc2nc(-c3cnc4c(c3)N([C@H]3C[C@@](C)(N5CCCCC5)C3)C(=O)C4(C)C)cc3ncn(C(C)C)c23)c(F)c(F)c1Cl [Example 281, 2-chloro-5-((6-(3,3-dimethyl-1-((1s,3s)-3-methyl-3-(piperidin-1-yl)cyclobutyl)-2-oxo-2,3-dihydro-1H-pyrrolo[3,2-b]pyridin-6-yl)-3-isopropyl-3H-imidazo[4,5-c]pyridin-4-yl)amino)-3,4-difluoro-N-methylbenzamide]",,0.07
"CC(C)n1cnc2cc(-c3ccc4c(c3)N([C@]3(C)C[C@H](N5CCCCC5)C3)C(=O)C4(C)C)nc(Nc3cc(C(=O)NC4(C(F)F)CC4)c(Cl)c(F)c3F)c21 [Example 296, 2-Chloro-N-(1-(difluoromethyl)cyclopropyl)-5-((6-(3,3-dimethyl-1-((1s,3s)-1-methyl-3-(piperidin-1-yl)cyclobutyl)-2-oxoindolin-6-yl)-3-isopropyl-3H-imidazo[4,5-c]pyridin-4-yl)amino)-3,4-difluorobenzamide]",,0.1
CNC(=O)c1cc(Nc2nc(-c3ccc4c(c3)N([C@H]3C[C@@H](N5CCC(C)(C)C5)C3)C(=O)C43CCN(C(C)=O)CC3)cc3ncn(C4CC4)c23)ccc1C [Example 159],0.1,

# Continued, values first:
IC50 [1] [nM],IC50 [2] [nM],SMILES
0.1,,CNC(=O)c1cc(Nc2nc(-c3ccc4c(c3)N([C@H]3C[C@@H](N5CC(C)(C)C5)C3)C(=O)C4(C)C)cc3ncn(C(C)C)c23)ccc1C [Example 122]
0.2,,CCNC(=O)c1cc(Nc2nc(-c3ccc4c(c3)N([C@H]3C[C@@H](N5CCCCC5)C3)C(=O)C43CCN(C(C)=O)CC3)cc3ncn(C(C)C)c23)c(F)cc1C [Example 74]
0.1,,CNC(=O)c1cc(Nc2nc(-c3ccc4c(c3)N([C@H]3C[C@@H](NCC(C)(C)O)C3)C(=O)C4(C)C)cc3ncn(C(C)C)c23)c(F)cc1C [Example 15]
0.2,,CNC(=O)c1cc(Nc2nc(-c3ccc4c(c3)N([C@H]3C[C@@H](N5CCCCC5)C3)CC4(C)C)cc3ncn(C(C)C)c23)ccc1C [Example 57]
0.2,,"CC(C)n1cnc2cc(-c3cnc4c(c3)N([C@H]3C[C@@](C)(N5CCC[C@@H](F)C5)C3)C(=O)C4(C)C)nc(Nc3cc(C(=O)NC4(C(F)F)CC4)c(Cl)c(F)c3F)c21 [Example 201, 2-Chloro-N-(1-(difluoromethyl)cyclopropyl)-3,4-difluoro-5-((6-(1-((1S,3s)-3-((R)-3-fluoropiperidin-1-yl)-3-methylcyclobutyl)-3,3-dimethyl-2-oxo-2,3-dihydro-1H-pyrrolo[3,2-b]pyridin-6-yl)-3-isopropyl-3H-imidazo[4,5-c]pyridin-4-yl)amino)benzamide]"
0.2,,"CCNC(=O)c1ccc(F)c(Nc2nc(-c3cnc4c(c3)N([C@H]3C[C@@](C)(N5CCCCC5)C3)C(=O)C4(C)C)cc3ncn(C(C)C)c23)c1 [Example 223, 3-((6-(3,3-Dimethyl-1-((1s,3s)-3-methyl-3-(piperidin-1-yl)cyclobutyl)-2-oxo-2,3-dihydro-1H-pyrrolo[3,2-b]pyridin-6-yl)-3-isopropyl-3H-imidazo[4,5-c]pyridin-4-yl)amino)-N-ethyl-4-fluorobenzamide]"
0.2,,"CNC(=O)c1cc(Nc2nc(-c3ccc4c(c3)N([C@H]3C[C@@H](N5CCC(C(F)F)C5)C3)C(=O)C4(C)C)cc3ncn(C(C)C)c23)ccc1C (stereo partly drawn) [Example 104, 5-((6-(1-((1s,3s)-3-(3-(difluoromethyl)pyrrolidin-1-yl)cyclobutyl)-3,3-dimethyl-2-oxoindolin-6-yl)-3-isopropyl-3H-imidazo[4,5-c]pyridin-4-yl)amino)-N,2-dimethylbenzamide]"
0.3,,CC(=O)N1CCC2(CC1)C(=O)N([C@H]1C[C@@H](N3CCCCC3)C1)c1cc(-c3cc4ncn(C(C)C)c4c(Nc4cc(C(=O)NC(C)(C)C)c(C)cc4F)n3)ccc12 [Example 59]
0.1,,"Cc1c(C(=O)NC2(C(F)F)CC2)cc(Nc2nc(-c3cnc4c(c3)N([C@H]3C[C@@](C)(N5CCC[C@@H](F)C5)C3)C(=O)C4(C)C)cc3ncn(C(C)C)c23)c(F)c1F [Example 196, N-(1-(Difluoromethyl)cyclopropyl)-3,4-difluoro-5-((6-(1-((1S,3s)-3-((R)-3-fluoropiperidin-1-yl)-3-methylcyclobutyl)-3,3-dimethyl-2-oxo-2,3-dihydro-1H-pyrrolo[3,2-b]pyridin-6-yl)-3-isopropyl-3H-imidazo[4,5-c]pyridin-4-yl)amino)-2-methylbenzamide]"
0.4,,CCn1cnc2cc(-c3ccc4c(c3)N([C@H]3C[C@@H](N5CCCCC5)C3)C(=O)C43CCN(C(C)=O)CC3)nc(Nc3cc(C(=O)NC(C)C)c(C)cc3F)c21 [Example 54]
0.06,,"Cc1c(C(=O)NCC(F)F)cc(Nc2nc(-c3cnc4c(c3)N([C@H]3C[C@@](C)(N5CCCCC5)C3)C(=O)C4(C)C)cc3ncn(C(C)C)c23)c(F)c1F [Example 217, N-(2,2-Difluoroethyl)-5-((6-(3,3-dimethyl-1-((1s,3s)-3-methyl-3-(piperidin-1-yl)cyclobutyl)-2-oxo-2,3-dihydro-1H-pyrrolo[3,2-b]pyridin-6-yl)-3-isopropyl-3H-imidazo[4,5-c]pyridin-4-yl)amino)-3,4-difluoro-2-methylbenzamide]"
0.3,,"Cc1c(C(=O)NC2(C(F)F)CC2)cc(Nc2nc(-c3cnc4c(c3)N([C@H]3C[C@@](C)(N5CC6CCC(C5)O6)C3)C(=O)C4(C)C)cc3ncn(C(C)C)c23)c(F)c1F [Example 228, 5-((6-(1-((1s,3s)-3-(8-Oxa-3-azabicyclo[3.2.1]octan-3-yl)-3-methylcyclobutyl)-3,3-dimethyl-2-oxo-2,3-dihydro-1H-pyrrolo[3,2-b]pyridin-6-yl)-3-isopropyl-3H-imidazo[4,5-c]pyridin-4-yl)amino)-N-(1-(difluoromethyl)cyclopropyl)-3,4-difluoro-2-methylbenzamide]"
0.1,,CNC(=O)c1cc(Nc2nc(-c3ccc4c(c3)N([C@H]3C[C@@H](N5CCCCC5)C3)C(=O)C43CCN(C(=O)OC)CC3)cc3ncn(C4CC4)c23)ccc1C [Example 50]
0.09,,Cc1cc(F)c(Nc2nc(-c3ccc4c(c3)N([C@H]3C[C@@H](N5C[C@H]6CC[C@@H]5C6)C3)C(=O)C4(C)C)cc3ncn(C(C)C)c23)cc1C(=O)NC1(C(F)F)CC1 [Example 66]
0.05,,CNC(=O)c1cc(Nc2nc(-c3ccc4c(c3)N([C@H]3C[C@@H](N5CCCCC5)C3)C(=O)C43CCN(C(=O)[C@@H](C)O)CC3)cc3ncn(C4CC4)c23)ccc1C [Example 151]
